This note sets out measurements from ChEMBL document CHEMBL1122225, “Synthesis and platelet aggregation inhibiting activity of prostaglandin D analogues” (J Med Chem, 1983).

Structures are written as SMILES. In brackets after ≈: the same amount, converted by molar mass. Bounds are passed on as bounds.

A short description of assay [1]: Potency in gerbil colon stimulation assay compared to PGE1. Type of assay: functional.
Assay [2] is filed under the species Homo sapiens. Put plainly: In vitro inhibition of ADP-induced platelet aggregation in human platelet rich plasma. In kind it is functional.
The nature of assay [3]: Relative potency with respect to PGE1 = 100 in rat blood pressure assay. Type of assay: functional.
Assay [4] in a line: Relative potency with respect to PGF2-alpha = 100 in rat blood pressure assay.

For orientation: IC50 means the concentration at which inhibition is half-maximal. For `CCCCC[C@H](O)/C=C/C1C(=O)CC(O)[C@@H]1C/C=C\CCCC(=O)O` (stereo partly drawn), the Relative potency in assay [1] is on record as 0.3; in assay [3], 10. Further, the IC50 in assay [2] was found to be 0.0001 µg/mL (≈ 0.000284 µM).

Regarding `CCCCC[C@](C)(O)/C=C/C1C(=O)C=C[C@@H]1C/C=C\CCCC(=O)O` (stereo partly drawn), the Relative potency in assay [1] is reported as 0.3; in assay [3] it was 0.1. Also, 1 µg/mL (≈ 2.87 µM) corresponded to half-maximal inhibition in assay [2] (IC50).

The compound `CCCCC[C@H](O)/C=C/C1C(=O)C[C@H](O)[C@@H]1C/C=C\CCCCCC(=O)O` (stereo partly drawn) displayed a Relative potency in assay [1] of less than 0.1. The compound further yielded an IC50 in assay [2] of 1 µg/mL (≈ 2.63 µM).

With `CCCCC[C@](C)(O)/C=C/C1C(=O)C[C@H](O)[C@@H]1C/C=C\CCCC(=O)O` (stereo partly drawn), the Relative potency in assay [1] is given as 10; in assay [4] it was 32. For the same compound, 0.32 µg/mL (≈ 0.873 µM) corresponded to half-maximal inhibition in assay [2] (IC50).

Take `CCCCC[C@H](O)/C=C/C1C(=O)C=C[C@@H]1C/C=C\CCCC(=O)O` (stereo partly drawn): the Relative potency in assay [1] is on record as 0.1; in assay [3] it was 10. This compound also yielded an IC50 in assay [2] of 0.0032 µg/mL (≈ 0.00957 µM).

Take `CCCCC(C)(C)[C@H](O)/C=C/C1C(=O)C[C@H](O)[C@@H]1C/C=C\CCCC(=O)O` (stereo partly drawn): the figures for the Relative potency in assay [1] and in assay [4] were 3 and 32, respectively.

With `CCCCC[C@H](O)/C=C/C1C(=O)C[C@H](O)[C@@H]1CCOCCCC(=O)O` (stereo partly drawn), in assay [1], the Relative potency was found to be 0.3. Besides, half-maximal inhibition in assay [2] (IC50) was put at 0.032 µg/mL (≈ 0.0898 µM).

As to `CCCCC[C@H](O)/C=C/C1C(=O)CC2OC(=O)CCC/C=C\C[C@@H]21` (stereo partly drawn), the Relative potency was 0.3 in assay [1] and 1 in assay [3]. In assay [2], this compound gave an IC50 of 0.032 µg/mL (≈ 0.0957 µM).

Regarding `CCCCC[C@H](O)CCC1C(=O)C[C@H](O)[C@@H]1CCCCCCC(=O)O` (stereo partly drawn), the Relative potency in assay [1] was determined as 0.1; in assay [4], 0.3. This compound also yielded an IC50 in assay [2] of 3.2 µg/mL (≈ 8.98 µM).

Regarding `CCCCC[C@H](O)/C=C/C1C(=O)CC[C@@H]1C/C=C\CCCC(=O)O` (stereo partly drawn), the Relative potency in assay [1] was 1; in assay [3], 10. In assay [2], this compound yielded an IC50 of 0.001 µg/mL (≈ 0.00297 µM).

With `CCCCC[C@@H]1/C=C\C2C(=O)CC(O)[C@@H]2C/C=C\CCCC(=O)O1` (stereo partly drawn), the Relative potency in assay [1] and in assay [3] was 0.1 in each case. Also, 1 µg/mL (≈ 2.99 µM) corresponded to half-maximal inhibition in assay [2] (IC50).

As to `CC/C=C\C[C@H](O)/C=C/C1C(=O)C[C@H](O)[C@@H]1C/C=C\CCCC(=O)O` (stereo partly drawn), the Relative potency in assay [1] worked out at 1; in assay [3] it was 10. In assay [2], this compound came in with an IC50 of 0.0032 µg/mL (≈ 0.00913 µM).

For `CCCCC[C@H](O)/C=C/[C@H]1C(=O)C[C@H](O)[C@@H]1C/C=C/CCCC(=O)O` [[3H]PGD2], the Relative potency in assay [1] amounted to 3; in assay [3], 10. The compound also returned an IC50 in assay [2] of 0.0032 µg/mL (≈ 0.00908 µM).

In the case of `CCCCC/C=C/C=C1/C(=O)C[C@H](O)[C@@H]1C/C=C\CCCC(=O)O`, the results for the Relative potency in assay [1] and in assay [3] were less than 0.1 and 0.1, respectively. Also, in assay [2], the IC50 was 0.32 µg/mL (≈ 0.957 µM).

Turning to `CCCCC[C@H](O)C/C=C1/C(=O)C[C@H](O)[C@@H]1C/C=C\CCCC(=O)O`, the Relative potency in assay [1] turned out to be 1; in assay [3], 10. The IC50 in assay [2] came out at 0.1 µg/mL (≈ 0.284 µM).

For `CCCCC[C@H](O)/C=C/C1C(=O)C[C@H](O)[C@@H]1CCCCCCC(=O)O` (stereo partly drawn), the Relative potency in assay [1] came to 3; in assay [3], 0.1. For the same compound, the IC50 in assay [2] is 0.32 µg/mL (≈ 0.903 µM).

With `O=C(O)CCC/C=C\C[C@@H]1C(/C=C/[C@@H](O)CCc2ccccc2)C(=O)C[C@@H]1O` (stereo partly drawn), the Relative potency is listed as 10 in assay [1] and 32 in assay [4]. The compound further yielded an IC50 in assay [2] of 3.2 µg/mL (≈ 8.28 µM).
